In patent US20240358693A1, “METHODS OF TREATING PAIN” (Aisa Pharma, Inc., priority 2023, published 2024):

System: participants with SSc-RP
Assay: Scleroderma Health Assessment Questionnaire (SHAQ): disability indices and visual analog scales
Format: in vivo, human
Excerpt: The standard, validated, patient reported outcome measures tool for SSc patients, the Scleroderma Health Assessment Questionnaire (SHAQ), will be used to assess the participant qualify of life. Details are attached in the Appendix. The participant quality of life will be scored, and a disability index calculated for each questionnaire completed by the patient at Screening and each in-clinic visit. The absolute change in participant quality of life from baseline to the end of each dosing period will be calculated similar to frequency data as before.
The SHAQ includes a Raynaud's VAS, which will be reported at screening and each in-clinic visit. The absolute change in Raynaud-VAS, assessed by the participants response to the SHAQ question ‘In the past 7 days, how much have your Raynaud's interfered with your daily activities?’ at baseline and the end of each dosing period will be calculated similar to frequency data as before.
The SHAQ is used to calculate a Disability Index to assess the participant qualify of life. The eight categories assessed by the Disability Index are 1) dressing and grooming, 2) arising, 3) eating, 4) walking, 5) hygiene, 6) reach, 7) grip, and 8) common daily activities. For each of these categories, patients report the amount of difficulty they have in performing two or three specific activities.
There are four possible responses for the Disability Index questions: • Without any difficulty=0 • With some difficulty=1 • With much difficulty=2 • Unable to do=3. • The highest score reported by the patient for any component question of the eight categories determines the score for that category. • If a component question is left blank or the response is too ambiguous to assign a score, then the score for that category is determined by the remaining completed question(s). • If all component questions are blank or if more than one answer is given, then follow up with the respondent is required. • If the respondent's mark is between the response columns, then move it to the closest one. If it's directly between the two, move it to the higher one.
Each of the disability items on the SHAQ has a companion aids/devices variable that is used to record what type(s) of assistance, if any, the participant uses for his/her usual activities. These variables (see below) are coded as follows: • 0=No assistance is needed. • 1=A special device is used by the patient in his/her usual activities. • 2=The patient usually needs help from another person. • 3=The patient usually needs BOTH a special device AND help from another person.
The scoring variables and scoring rules permit the computation of two disability indices, the Standard Disability Index and the Alternative Disability Index.
This question results in a new set of category scores that are computed by adjusting the score for each category, if necessary, based on the patient's use of an aid or device or assistance for that category. If either devices and/or help from another person are checked for a category, the score is set to “2”, unless the score is already “3” (i.e., scores of “0” or “1” are increased to “2”). For example, if the highest score for the dressing category is “1”, and the patient says they use a device for dressing, the computed category score would be “2”. The sum of the computed categories scores is then calculated and divided by the number of categories answered. This gives a score in the 0 to 3 range.
The aid and device variables are not used to calculate the alternative disability index; it is calculated by adding the scores for each of the categories and dividing by the number of categories answered. This gives a score in the 0 to 3 range.
The standard, validated, patient reported outcome measures tool for SSc patients, the SHAQ, was collected at the time points specified in the study schedules (FIG. 2 and FIGS. 4A and 4B) to assess the participant's quality of life. The SHAQ included a Raynaud's VAS that will also be reported separately.

[1] = Cilnidipine 20 mg, PP Population Part A, SSc patients
[2] = Day 12, Cilnidipine 10 mg (N = 4), Patients with Diagnosis of SSc, PP Population Part A
[3] = Day 12, Cilnidipine 20 mg (N = 4), Patients with Diagnosis of SSc, PP Population Part A
[4] = Day 12, Modified ITT, Part A, dose Cilnidipine 10 mg, Tadalafil 5 mg, or 10 mg + 5 mg
[5] = Day 12, Modified ITT, Part A, dose Cilnidipine 20 mg, or 20 mg + Tadalafil 5 mg

Structure (SMILES): COCCOC(=O)C1=C(C)NC(C)=C(C(=O)OC/C=C/c2ccccc2)C1c1cccc([N+](=O)[O-])c1 (stereo not shown) [Cilnidipine, cilnidipine]
- SHAQ Visual Analogue Scale - Finger Ulcers, In-Clinic Visit (Day 12), Mean [1]: 0.650
- SHAQ Visual Analogue Scale - Finger Ulcers, In-Clinic Visit (Day 12), Median [1]: 0.350
- SHAQ Visual Analogue Scale - Intestinal Problems, In-Clinic Visit (Day 12), Mean [1]: 0.850
- SHAQ Visual Analogue Scale - Intestinal Problems, In-Clinic Visit (Day 12), Median [1]: 0.650
- SHAQ Visual Analogue Scale - Overall Disease Severity, In-Clinic Visit (Day 12), Mean [1]: 1.125
- SHAQ Visual Analogue Scale - Overall Disease Severity, In-Clinic Visit (Day 12), Median [1]: 1.300
- SHAQ Visual Analogue Scale - Pain, In-Clinic Visit (Day 12), Mean [1]: 1.875
- SHAQ Visual Analogue Scale - Pain, In-Clinic Visit (Day 12), Median [1]: 1.400
- SHAQ Visual Analogue Scale - Raynaud's, In-Clinic Visit (Day 12), Mean [1]: 1.875
- SHAQ Visual Analogue Scale - Raynaud's, In-Clinic Visit (Day 12), Median [1]: 1.250
- SHAQ Alternative Disability Index, Change from Baseline, Mean [2]: 0.063
- SHAQ Alternative Disability Index, Change from Baseline, Median [2]: 0.000
- SHAQ Alternative Disability Index, Percent Change from Baseline, Mean [2]: 15.87%
- SHAQ Alternative Disability Index, Percent Change from Baseline, Median [2]: 15.87%
- SHAQ Standard Disability Index, Change from Baseline, Mean [2]: 0.000
- SHAQ Standard Disability Index, Change from Baseline, Median [2]: 0.000
- SHAQ Standard Disability Index, Percent Change from Baseline, Mean [2]: 0.00%
- SHAQ Standard Disability Index, Percent Change from Baseline, Median [2]: 0.00%
- SHAQ Alternative Disability Index, Change from Baseline, Mean [3]: 0.000
- SHAQ Alternative Disability Index, Change from Baseline, Median [3]: −0.063
- SHAQ Alternative Disability Index, Percent Change from Baseline, Mean [3]: 5.56%
- SHAQ Alternative Disability Index, Percent Change from Baseline, Median [3]: −33.33%
- SHAQ Standard Disability Index, Change from Baseline, Mean [3]: −0.063
- SHAQ Standard Disability Index, Change from Baseline, Median [3]: −0.063
- SHAQ Standard Disability Index, Percent Change from Baseline, Mean [3]: −26.67%
- SHAQ Standard Disability Index, Percent Change from Baseline, Median [3]: −33.33%
- SHAQ Alternative Disability Index, Change from Baseline, Mean [4]: 0.063
- SHAQ Alternative Disability Index, Change from Baseline, Median [4]: 0.000
- SHAQ Alternative Disability Index, Percent Change from Baseline, Mean [4]: 15.87%
- SHAQ Alternative Disability Index, Percent Change from Baseline, Median [4]: 15.87%
- SHAQ Finger Ulcers, Change from Baseline, Mean [4]: −0.425
- SHAQ Finger Ulcers, Change from Baseline, Median [4]: −0.350
- SHAQ Finger Ulcers, Percent Change from Baseline, Mean [4]: −69.44%
- SHAQ Finger Ulcers, Percent Change from Baseline, Median [4]: −69.44%
- SHAQ Standard Disability Index, Change from Baseline, Mean [4]: 0.0
- SHAQ Standard Disability Index, Change from Baseline, Median [4]: 0.000
- SHAQ Standard Disability Index, Percent Change from Baseline, Mean [4]: 0.0%
- SHAQ Standard Disability Index, Percent Change from Baseline, Median [4]: 0.00%
- SHAQ Visual Analog Scale-Breathing Problems, Change from Baseline, Mean [4]: −0.300
- SHAQ Visual Analog Scale-Breathing Problems, Change from Baseline, Median [4]: 0.000
- SHAQ Visual Analog Scale-Breathing Problems, Percent Change from Baseline, Mean [4]: −16.00%
- SHAQ Visual Analog Scale-Breathing Problems, Percent Change from Baseline, Median [4]: −16.00%
- SHAQ Visual Analog Scale-Intestinal Problems, Change from Baseline, Mean [4]: −1.875
- SHAQ Visual Analog Scale-Intestinal Problems, Change from Baseline, Median [4]: −1.550
- SHAQ Visual Analog Scale-Intestinal Problems, Percent Change from Baseline, Mean [4]: −77.37%
- SHAQ Visual Analog Scale-Intestinal Problems, Percent Change from Baseline, Median [4]: −88.00%
- SHAQ Visual Analog Scale-Pain, Change from Baseline, Mean [4]: −0.100
- SHAQ Visual Analog Scale-Pain, Change from Baseline, Median [4]: 0.000
- SHAQ Visual Analog Scale-Pain, Percent Change from Baseline, Mean [4]: −9.88%
- SHAQ Visual Analog Scale-Pain, Percent Change from Baseline, Median [4]: 0.00%
- SHAQ Visual Analog Scale-Raynaud's, Change from Baseline, Mean [4]: 0.325
- SHAQ Visual Analog Scale-Raynaud's, Change from Baseline, Median [4]: 0.350
- SHAQ Visual Analog Scale-Raynaud's, Percent Change from Baseline, Mean [4]: 11.36%
- SHAQ Visual Analog Scale-Raynaud's, Percent Change from Baseline, Median [4]: −2.27%
- SHAQ Alternative Disability Index, Change from Baseline, Mean [5]: −0.083
- SHAQ Alternative Disability Index, Change from Baseline, Median [5]: −0.125
- SHAQ Alternative Disability Index, Percent Change from Baseline, Mean [5]: −41.67%
- SHAQ Alternative Disability Index, Percent Change from Baseline, Median [5]: −41.67%
- SHAQ Finger Ulcers, Change from Baseline, Mean [5]: −0.933
- SHAQ Finger Ulcers, Change from Baseline, Median [5]: 0.000
- SHAQ Finger Ulcers, Percent Change from Baseline, Mean [5]: 35.29%
